Assay results taken from the supplement of paper PMC10307832.

Experiments:
Experiment in all cases: relative viability (nuclei count vs DMSO), 5 days (fraction); higher = more cells survive
XMD14-99 + AZD7762 = compound: CN1CCN(CC1)C2=CC(=C(C=C2)NC3=NC(=C(S3)C(=O)C4=C(C=CC=C4Cl)Cl)N)OC [XMD14-99] + NC(=O)Nc1cc(-c2cccc(F)c2)sc1C(=O)N[C@H]1CCCNC1 [AZD7762] (partner 0.2 µM)
Summary of the method: (§1)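 Lung cancer cell lines, seeded in 1536-well plates, were treated the following day by pin tool with a single drug or with five library-drug doses (not always all listed) in √10 steps on top of a fixed anchor-drug dose. Cells were fixed and nuclei stained in one step after 5 days, and nuclei were counted. Relative viability is the nuclei count for treated wells divided by that for vehicle wells, reported as medians of duplicate plates.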

AZD1208 + Alpelisib = compound: N[C@@H]1CCCN(c2c(/C=C3\SC(=O)NC3=O)cccc2-c2ccccc2)C1 [AZD1208] + Cc1nc(NC(=O)N2CCC[C@H]2C(N)=O)sc1-c1ccnc(C(C)(C)C(F)(F)F)c1 [Alpelisib] (partner 2 µM)
Summary of the method: as §1

XMD14-99 + Tozasertib = compound: CN1CCN(CC1)C2=CC(=C(C=C2)NC3=NC(=C(S3)C(=O)C4=C(C=CC=C4Cl)Cl)N)OC [XMD14-99] + Cc1cc(Nc2cc(N3CCN(C)CC3)nc(Sc3ccc(NC(=O)C4CC4)cc3)n2)n[nH]1 [Tozasertib] (partner 0.1 µM)
Summary of the method: as §1

XMD14-99 + OSI-027 = compound: CN1CCN(CC1)C2=CC(=C(C=C2)NC3=NC(=C(S3)C(=O)C4=C(C=CC=C4Cl)Cl)N)OC [XMD14-99] + COc1cccc2cc(-c3nc([C@H]4CC[C@H](C(=O)O)CC4)n4ncnc(N)c34)[nH]c12 [OSI-027] (partner 0.5 µM)
Summary of the method: as §1

Cell Line | relative viability (XMD14-99 + AZD7762; first compound 0.08 µM) | relative viability (XMD14-99 + AZD7762; first compound 0.8 µM) | relative viability (XMD14-99 + AZD7762; first compound 2.53 µM) | relative viability (XMD14-99 + AZD7762; first compound 8 µM) | relative viability (AZD1208 + Alpelisib; first compound 0.08 µM) | relative viability (AZD1208 + Alpelisib; first compound 0.253 µM) | relative viability (AZD1208 + Alpelisib; first compound 0.8 µM) | relative viability (AZD1208 + Alpelisib; first compound 2.53 µM) | relative viability (AZD1208 + Alpelisib; first compound 8 µM) | relative viability (XMD14-99 + Tozasertib; first compound 0.08 µM) | relative viability (XMD14-99 + Tozasertib; first compound 0.8 µM) | relative viability (XMD14-99 + Tozasertib; first compound 2.53 µM) | relative viability (XMD14-99 + Tozasertib; first compound 8 µM) | relative viability (XMD14-99 + OSI-027; first compound 0.08 µM) | relative viability (XMD14-99 + OSI-027; first compound 0.8 µM) | relative viability (XMD14-99 + OSI-027; first compound 2.53 µM) | relative viability (XMD14-99 + OSI-027; first compound 8 µM)
NCI-H2126 | 0.979 | 0.984 | 1.05 | 0.942 | 0.703 | 0.724 | 0.652 | 0.642 | 0.624 | 0.811 | 0.806 | 0.791 | 0.693 | 0.666 | 0.66 | 0.669 | 0.432
BEN | 0.594 | 0.736 | 0.596 | 0.514 | 0.876 | 1.1 | 0.704 | 0.673 | 0.507 | 0.478 | 0.471 | 0.5 | 0.428 | 0.29 | 0.295 | 0.312 | 0.264
LCLC-103H | 0.804 | 0.837 | 0.781 | 0.681 | 0.904 | 0.985 | 0.863 | 0.884 | 0.774 | 0.494 | 0.487 | 0.465 | 0.44 | 0.409 | 0.417 | 0.465 | 0.406
EKVX | 0.654 | 0.692 | 0.651 | 0.522 | 0.866 | 0.936 | 0.775 | 0.802 | 0.71 | 0.368 | 0.378 | 0.392 | 0.343 | 0.653 | 0.72 | 0.655 | 0.586
LXF-289 | 1.14 | 0.969 | 1.12 | 0.98 | 1.05 | 1.13 | 1.01 | 1.03 | 1.03 | 0.183 | 0.205 | 0.196 | 0.171 | 0.839 | 0.84 | 0.819 | 0.616
ABC-1 | 0.859 | 1.03 | 0.865 | 0.762 | 1.14 | 0.727 | 0.769 | 0.903 | 0.935 | 0.185 | 0.177 | 0.235 | 0.217 | 0.431 | 0.551 | 0.382 | 0.291
NCI-H2087 | 1.26 | 1.14 | 1.04 | 0.764 | 1.04 | 1.03 | 1.09 | 1.13 | 0.963 | 0.225 | 0.253 | 0.228 | 0.169 | 0.524 | 0.487 | 0.45 | 0.299
NCI-H1793 | 0.512 | 0.298 | 0.389 | 0.298 | 0.639 | 0.778 | 0.664 | 0.507 | 0.498 | 0.329 | 0.377 | 0.34 | 0.28 | 0.269 | 0.26 | 0.232 | 0.199
LC-2-ad | 0.869 | 0.872 | 0.889 | 0.735 | 0.816 | 0.592 | 0.787 | 0.894 | 0.794 | 0.399 | 0.481 | 0.484 | 0.418 | 0.845 | 0.866 | 0.771 | 0.679
NCI-H1355 | 0.85 | 0.625 | 0.652 | 0.572 | 0.826 | 0.832 | 0.704 | 0.771 | 0.64 | 0.54 | 0.519 | 0.408 | 0.324 | 0.395 | 0.367 | 0.337 | 0.292
H3255 | 0.854 | 0.777 | 0.75 | 0.586 | 0.662 | 0.702 | 0.639 | 0.567 | 0.615 | 0.721 | 0.606 | 0.563 | 0.454 | 0.548 | 0.57 | 0.535 | 0.487
NCI-H1734 | 0.487 | 0.513 | 0.459 | 0.51 | 0.614 | 0.619 | 0.557 | 0.556 | 0.434 | 0.288 | 0.244 | 0.248 | 0.227 | 0.556 | 0.524 | 0.55 | 0.437
HOP-62 | 0.489 | 0.57 | 0.726 | 0.513 | 1.04 | 0.919 | 0.82 | 0.764 | 0.896 | 0.375 | 0.341 | 0.351 | 0.241 | 0.873 | 0.877 | 0.772 | 0.662
LOU-NH91 | 0.785 | 0.814 | 0.714 | 0.675 | 0.72 | 0.719 | 0.632 | 0.681 | 0.673 | 0.709 | 0.631 | 0.645 | 0.533 | 0.744 | 0.7 | 0.73 | 0.63
NCI-H23 | 0.284 | 0.312 | 0.25 | 0.188 | 0.658 | 0.58 | 0.493 | 0.564 | 0.561 | 0.453 | 0.352 | 0.279 | 0.263 | 0.699 | 0.616 | 0.615 | 0.496
PC-3 [JPC-3] | 0.905 | 0.789 | 0.681 | 0.553 | 1.07 | 1.07 | 1 | 1.1 | 0.946 | 0.889 | 0.828 | 0.789 | 0.705 | 0.769 | 0.701 | 0.638 | 0.541
NCI-H1437 | 1.18 | 1.05 | 0.991 | 0.719 | 0.927 | 0.981 | 0.796 | 0.827 | 0.504 | 0.426 | 0.336 | 0.321 | 0.219 | 0.892 | 0.842 | 0.804 | 0.68
